In assay [1] the target is T1, HDAC10 (Homo sapiens, UniProt Q969S8).
T1 sequence (Q969S8 1-669): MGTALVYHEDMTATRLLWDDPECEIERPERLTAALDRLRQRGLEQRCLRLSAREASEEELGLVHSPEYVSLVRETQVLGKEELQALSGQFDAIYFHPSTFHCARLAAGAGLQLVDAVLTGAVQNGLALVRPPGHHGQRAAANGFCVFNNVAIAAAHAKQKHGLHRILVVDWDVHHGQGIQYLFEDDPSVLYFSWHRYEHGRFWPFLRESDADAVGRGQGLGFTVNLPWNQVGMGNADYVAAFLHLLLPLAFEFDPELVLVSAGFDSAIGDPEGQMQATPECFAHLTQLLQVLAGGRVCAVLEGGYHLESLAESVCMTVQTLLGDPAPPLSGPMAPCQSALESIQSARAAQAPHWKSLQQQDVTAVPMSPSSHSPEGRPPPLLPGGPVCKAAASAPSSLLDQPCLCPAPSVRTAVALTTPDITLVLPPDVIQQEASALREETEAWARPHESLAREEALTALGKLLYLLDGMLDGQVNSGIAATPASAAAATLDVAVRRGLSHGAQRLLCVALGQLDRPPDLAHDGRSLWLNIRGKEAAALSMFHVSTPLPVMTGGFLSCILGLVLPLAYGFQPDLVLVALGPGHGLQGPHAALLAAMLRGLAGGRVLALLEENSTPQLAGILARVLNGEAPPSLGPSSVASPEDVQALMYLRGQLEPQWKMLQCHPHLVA
The arrangement: host or cells: Sf21 insect cells (baculovirus); method as in PMID 30964290. The note with it: previously shown; cited from earlier work.

The target in the next assay is T2, HDAC8 (Homo sapiens, UniProt Q9BY41).
T2 construct: purchased BPS Bioscience 50008
T2 sequence (Q9BY41 1-377): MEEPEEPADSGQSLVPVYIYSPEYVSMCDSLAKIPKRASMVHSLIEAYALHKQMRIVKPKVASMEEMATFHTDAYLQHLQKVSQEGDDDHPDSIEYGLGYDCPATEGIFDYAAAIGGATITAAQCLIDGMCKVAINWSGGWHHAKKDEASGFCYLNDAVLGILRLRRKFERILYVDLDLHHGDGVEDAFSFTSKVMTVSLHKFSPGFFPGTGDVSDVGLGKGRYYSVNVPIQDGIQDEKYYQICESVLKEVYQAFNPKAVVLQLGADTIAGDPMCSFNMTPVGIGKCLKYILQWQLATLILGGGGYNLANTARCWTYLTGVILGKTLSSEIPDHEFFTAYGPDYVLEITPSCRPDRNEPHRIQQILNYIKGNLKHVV
As to the kind of experiment: HDAC-Glo I/II enzymatic assay, HDAC8. The assay is classed as biochemical. The note with it: read-out: HDAC8 pIC50 (converted). The method, then: Inhibitors were tested at eight serial dilutions in triplicate ranging from 50 μM–86,7 pM (HDAC6) or 100 μM–8,67 nM (HDAC1,2,3,8). Drug dosing was performed from 10 mM and 0.1 mM DMSO stock solutions with a D300e Digital Dispenser (Tecan). HDACs (7 ng/mL for HDAC1, 10 ng/mL for HDAC2, 200 ng/mL for HDAC3/Ncor2 complex, 100 ng/mL for HDAC6, 200 ng/mL for HDAC8) and inhibitors were incubated together for 30 min at room temperature. After addition of the HDAC‐Glo™ I/II reagent, plates were shaken (800 rpm orbital shaker, 30 s), centrifuged (300 g, 1 min) and incubated at room temperature for 30 min. Luminescence was detected with a CLARIOstar (BMG Labtech) plate reader.

Assay [2] deals with T1, HDAC10. As to the kind of experiment: ligand displacement TR-FRET assay, HDAC10. It counts as binding. The arrangement: host or cells: Sf21 insect cells (baculovirus). The note with it: ligand-displacement FRET assay; read-out: HDAC10 pIC50 (converted). The method, then: Expression and purification of TwinStrepII‐GST‐HDAC10: A synthetic gene encoding TwinStrepII‐GST‐HDAC10 (human) was ordered from GeneArt (Thermo Fischer Scientific) and subcloned into the pFastBac1 vector. The resulting construct was used for transposition in E. coli DH10EMBacY cells. The isolated bacmid DNA was then used to generate the recombinant baculovirus. For protein expression, 10 mL of baculovirus was added to 1 L of Sf21 cells at a density of 1×10^6 cells/mL. The infected Sf21 cells were grown for 72 h in Sf‐900 III SFM medium (Thermo Fischer Scientific) at 27 °C. Cells were harvested by centrifugation and re‐suspended in running buffer (100 mM Tris pH 8.0, 150 mM NaCl, 1 mM EDTA and 1 mM DTT) supplemented with 10 mM MgCl2, benzonase and cOmplete protease inhibitors (Merck). […] The clarified lysate was then loaded onto a 5 mL Strep‐Tactin Superflow high capacity column (IBA) pre‐equilibrated in running buffer. After sample loading and washing, the TwinStrepII‐GST‐HDAC10 protein was eluted in running buffer supplemented with 5 mM desthiobiotin (IBA). The elution fractions containing TwinStrepII‐GST‐HDAC10 were pooled and concentrated before being injected onto a HiLoad 16/600 Superdex 200 pg size exclusion chromatography column (GE Healthcare) pre‐equilibrated with 25 mM HEPES/NaCl pH 7.5, 150 mM NaCl, 0.5 mM EDTA, 1 mM DTT and 10 % glycerol. Samples were eluted from the size exclusion chromatography column in the same buffer, flash‐frozen in liquid N2 and stored at −80 °C.
The TR‐FRET measurements of the monohydroxamic acids in this manuscript were measured in the original assay format, which is described directly below this paragraph. The TR‐FRET measurements of the dihydroxamic acids in this manuscript were measured in the modified format, which is described two paragraphs below this one.
The concentrations of reagents in 10 μL final assay volume were 3 nM GST‐HDAC10, 30 nM “Tubastatin‐Alexa647‐Tracer” and 0.5 nM Eu‐anti‐GST. GST‐HDAC10 and LanthaScreen™ Eu‐anti‐GST Antibody were purchased from Life Technologies, and the Tubastatin‐Alexa647‐Tracer was synthesized in‐house as previously described.19 An 11‐fold 1 : 3‐serial dilution of compounds starting at 2 mM was prepared in 384 well pp‐plates (Greiner) from 10 mM stocks in DMSO and 1 μL was transferred to assay plates. Nine μL of the reagent‐mix was added and the plate was incubated for 1 h at RT before TR‐FRET was measured in an EnVision™ plate reader equipped with a TR‐FRET Laser module. […] Percent inhibition was calculated for each well from negative control wells containing 2 % DMSO and positive control wells containing 20 μM SAHA. The resulting dose‐response curves were fitted in ActivityBase (IDBS) using a four‐parameter logistic model and pIC50‐values were calculated.
After drug dosing to the premixed assay reagents in buffer, plates were shaken (800 rpm orbital shaker, 30 s), centrifuged (300 g, 1 min) and incubated at room temperature in the dark for 60 min. TR‐FRET was measured with a CLARIOstar (BMG Labtech) plate reader, equipped with TR‐FRET filters.
For orientation: Time-resolved FRET reads energy transfer from a long-lived donor to a nearby acceptor.

A value given as a limit tells only on which side of the number the result lay.

Consider `CN(C)Cc1cn(Cc2ccc(C(=O)NO)cc2)c2ccccc12` [Compound 1b], for which, at HDAC10 [1], the “selectivity for HDAC10 over HDACs 1, 2, and 3” value was over 100 fold. The IC50 on HDAC8 is 955 nM; on HDAC10 [2], 5.25 nM.
